In article PMC7211882, “Controlled release of basic fibroblast growth factor from a peptide biomaterial for bone regeneration” (Royal Society Open Science, 2020):

Molecular target: T1, Proteinase K (Parengyodontium album, UniProt P06873)
T1 construct: purchased RayBiotech, Norcross, GA, USA
Assay: Peptide degradation by proteinase K
Assay type: in vitro ADME
Conditions: proteinase K 0.05 mg ml^-1, 37°C, 4 h, D-RADA16 0.2 mg ml^-1, intact peptide by HPLC (C18), three replicates
Protocol: Proteinase K solution (RayBiotech, Norcross, GA, USA) (0.05 mg ml^−1) was added in D-RADA16 and nHA/PA66/D-RADA16 groups, respectively. All samples were incubated at 37°C, and 400 µl aliquots were removed at various time points (1, 2, 4, 6, 8, 12, 24 and 48 h). The enzymatic reaction was terminated by the addition of phenylmethanesulfonyl fluoride (working concentration: 0.1 to 1 mM) and the concentration of the intact peptide were analysed by HPLC (LCMS-2020; Shimadzu, Kyoto, Japan) under the following conditions: Venusil XBP C18, 5 µm, 4.6 × 50 mm (Agela, Tianjin, China); sample injection volume: 100 µl; gradient elution: A, 0.035% trifluoroacetic acid (TFA) in water; and B, 0.035% TFA in acetonitrile/water (80 : 20, vol/vol). A gradient of 10–100% B in 10 min was conducted. The experiment was conducted in three replicates.
Proteinase K, a highly non-specific proteolytic enzyme, was used to examine the stability of D-RADA16 in the various composites. The concentration of each D-RADA16 was set to 0.2 mg ml^−1. And after 4 h, only 30–40% of the peptide remained in the control samples, whereas over 50% of the peptide still remained in the experimental samples. Similar results were observed after 24 and 48 h (figure 1d).

T1 sequence (P06873 106-384): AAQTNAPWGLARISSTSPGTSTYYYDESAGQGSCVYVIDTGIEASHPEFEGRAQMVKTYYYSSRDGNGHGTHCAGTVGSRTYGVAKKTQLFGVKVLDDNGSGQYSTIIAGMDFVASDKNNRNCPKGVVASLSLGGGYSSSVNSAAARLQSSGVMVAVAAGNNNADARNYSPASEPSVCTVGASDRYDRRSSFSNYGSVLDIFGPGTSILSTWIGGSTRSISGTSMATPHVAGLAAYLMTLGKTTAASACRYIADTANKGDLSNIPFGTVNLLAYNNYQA

**Q.** With `CC(=O)N[C@H](CCCNC(=N)N)C(=O)N[C@H](C)C(=O)N[C@H](CC(=O)O)C(=O)N[C@H](C)C(=O)N[C@H](CCCNC(=N)N)C(=O)N[C@H](C)C(=O)N[C@H](CC(=O)O)C(=O)N[C@H](C)C(=O)N[C@H](CCCNC(=N)N)C(=O)N[C@H](C)C(=O)N[C@H](CC(=O)O)C(=O)N[C@H](C)C(=O)N[C@H](CCCNC(=N)N)C(=O)N[C@H](C)C(=O)N[C@H](CC(=O)O)C(=O)N[C@H](C)C(N)=O` [D-RADA16, Ac-RADARADARADARADA-CONH2] as the compound, how does the intact peptide remaining read?
**A.** 30–40%
